For 8 compounds, GI50 and TGI results are on record in PubChem BioAssay (NCI).

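1) Cells in 96-well plates. 2) Compound, 48 h, 5 concentrations. 3) Linear interpolation between surrounding doses. 4) Unreached endpoint = highest concentration. The concentration for 50% growth inhibition is given as GI50. At the TGI there is no net growth.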

Test systems include 786-0 renal; COLO 205 colon; EKVX NSCLC; HCC-2998 colon; HCT-15 colon; HOP-62 NSCLC; KM12 colon; MCF7 breast; NCI-H226 lung; T-47D breast.
Holding throughout (assay): NCI anticancer screen, dose series, 48 h

In the case of `CC(=O)N1N=C2/C(=C/c3ccc(Cl)cc3)CC(C)CC2C1c1ccc(Cl)cc1` (centres undefined), the GI50 in the assay on 786-0 renal is 18.2 µM; in the assay with COLO 205 colon, 11.8 µM; with EKVX NSCLC it was 21.5 µM; with HCC-2998 colon it was 19.1 µM; in the assay on HCT-15 colon, 31.9 µM; in the assay on HOP-62 NSCLC, 22.1 µM. The GI50 is 21.4 µM in the assay on KM12 colon, 19.2 µM with MCF7 breast, 22 µM in the assay on NCI-H226 lung and 12.4 µM in the assay on T-47D breast. The TGI in the assay on 786-0 renal is 39.1 µM; in the assay on COLO 205 colon, 24.5 µM; in the assay with EKVX NSCLC, 92.7 µM; with HCC-2998 colon it was 38.1 µM; in the assay on HCT-15 colon, above 100 µM; in the assay with HOP-62 NSCLC it was 54.6 µM. Besides, the TGI worked out at 67.1 µM in the assay with KM12 colon, 54.2 µM in the assay on MCF7 breast, 70.2 µM with NCI-H226 lung and 61.8 µM in the assay on T-47D breast.
With `Clc1ccc(-c2cc(-c3ccccc3)nc(NCCNc3ccnc4cc(Cl)ccc34)n2)cc1`, the GI50 in the assay on 786-0 renal was 1.67 µM; in the assay on COLO 205 colon it was 1.68 µM; in the assay with EKVX NSCLC, 1.6 µM; in the assay with HCC-2998 colon it was 1.85 µM; in the assay on HCT-15 colon, 1.63 µM; in the assay on HOP-62 NSCLC, 1.68 µM. Moreover, the GI50 was 1.81 µM in the assay on KM12 colon, 1.72 µM in the assay with MCF7 breast, 1.57 µM in the assay with NCI-H226 lung and 1.54 µM in the assay with T-47D breast. The TGI is 3.41 µM with 786-0 renal; 3.66 µM in the assay on COLO 205 colon; 3.34 µM in the assay with EKVX NSCLC; 3.56 µM in the assay with HCC-2998 colon; 3.25 µM in the assay with HCT-15 colon; 3.48 µM with HOP-62 NSCLC. Also, the TGI with KM12 colon came out at 3.46 µM; with MCF7 breast it was 3.73 µM; in the assay on NCI-H226 lung, 3.68 µM; in the assay with T-47D breast, 3.45 µM.
On to `CS(=O)(=O)CC(=O)c1ccccc1`, for which the TGI with 786-0 renal, with COLO 205 colon, with EKVX NSCLC, in the assay with HCC-2998 colon, in the assay with HCT-15 colon and in the assay with HOP-62 NSCLC was above 100 µM in each case. Also, the TGI in the assay on KM12 colon, with MCF7 breast, in the assay on NCI-H226 lung and with T-47D breast was above 100 µM throughout.
With `O=C(Nc1ccccc1)c1cc(S(=O)(=O)Nc2nc3ccccc3o2)c(SCc2ccccc2)cc1Cl`, the GI50 in the assay with 786-0 renal was 17.3 µM; with COLO 205 colon, 36.7 µM; in the assay with EKVX NSCLC, 15.3 µM; with HCC-2998 colon, 18.7 µM; in the assay on HCT-15 colon it was 17 µM; in the assay on HOP-62 NSCLC, 20.2 µM. Further, the GI50 in the assay with KM12 colon was 16.7 µM; in the assay with MCF7 breast it was 28.4 µM; in the assay on NCI-H226 lung, 21.5 µM; in the assay with T-47D breast it was 22.5 µM. Further, the TGI in the assay on 786-0 renal was 38.2 µM; with COLO 205 colon, above 100 µM; in the assay on EKVX NSCLC, 31.3 µM; with HCC-2998 colon, 34.8 µM; in the assay with HCT-15 colon it was 34 µM; in the assay with HOP-62 NSCLC it was 42.5 µM. The TGI was determined as 32.6 µM in the assay on KM12 colon, 80.6 µM with MCF7 breast, 50.7 µM with NCI-H226 lung and 91.3 µM in the assay with T-47D breast.
Consider `Oc1cc2ccccc2c(-c2c(O)c(O)cc3ccccc23)c1O`, for which the GI50 with 786-0 renal is 0.201 µM; in the assay with COLO 205 colon, 2.06 µM; with EKVX NSCLC, 1.87 µM; with HCC-2998 colon it was 0.506 µM; with HCT-15 colon, 0.323 µM; in the assay with HOP-62 NSCLC, 1.03 µM. Moreover, the GI50 in the assay with KM12 colon was 2.81 µM; with MCF7 breast it was 0.228 µM; in the assay on NCI-H226 lung it was 3.83 µM; in the assay on T-47D breast, 0.319 µM. Moreover, the TGI with 786-0 renal is 1.07 µM; in the assay with COLO 205 colon, 8.95 µM; in the assay on EKVX NSCLC it was above 44.4 µM; in the assay with HCC-2998 colon, 2.61 µM; with HCT-15 colon, 14.8 µM; in the assay with HOP-62 NSCLC, 8.39 µM. Moreover, the TGI with KM12 colon was determined as 17.4 µM; with MCF7 breast, 13 µM; with NCI-H226 lung, 26.6 µM; in the assay with T-47D breast, 14.5 µM.
In the case of `O=C(c1ccco1)c1c(C(F)(F)F)n([O-])c2ccc(Cl)cc2[n+]1=O`, the GI50 with 786-0 renal is 0.043 µM; in the assay on COLO 205 colon it was 1.39 µM; in the assay on EKVX NSCLC, 0.561 µM; with HCC-2998 colon, 0.101 µM; with HCT-15 colon it was 0.372 µM; with HOP-62 NSCLC it was 0.194 µM. For the same compound, the GI50 in the assay with KM12 colon is 1.93 µM; with MCF7 breast, 0.443 µM; in the assay with NCI-H226 lung, 1.43 µM; in the assay with T-47D breast, 1.41 µM. In addition, the TGI with 786-0 renal was 0.115 µM; in the assay on COLO 205 colon, 12.8 µM; in the assay on EKVX NSCLC it was 2.12 µM; in the assay on HCC-2998 colon, 0.216 µM; in the assay on HCT-15 colon, 1.72 µM; with HOP-62 NSCLC, 0.617 µM. Moreover, the TGI in the assay on KM12 colon amounted to 4.13 µM; with NCI-H226 lung it was 3.24 µM; in the assay with T-47D breast, 3.55 µM.
Take `O=c1oc2ccc(Br)cc2c(=O)n1-c1ccc(I)cc1F`: the GI50 in the assay with 786-0 renal was 1.96 µM; in the assay with COLO 205 colon, 3.97 µM; with EKVX NSCLC, 0.594 µM; in the assay on HCC-2998 colon, 2.2 µM; with HCT-15 colon, 0.4 µM; in the assay with HOP-62 NSCLC, 0.774 µM. The GI50 in the assay on KM12 colon was 1.66 µM; with MCF7 breast it was 0.709 µM; in the assay on NCI-H226 lung it was 0.66 µM; with T-47D breast, 0.279 µM. The TGI in the assay with 786-0 renal is 6.16 µM; with COLO 205 colon, 15.1 µM; in the assay with EKVX NSCLC it was 5.73 µM; in the assay with HCC-2998 colon, 8.78 µM; with HCT-15 colon it was 5.96 µM; in the assay on HOP-62 NSCLC, 7.76 µM. Moreover, the TGI with KM12 colon is 4.37 µM; with MCF7 breast, 5.87 µM; in the assay on NCI-H226 lung it was 3.36 µM; in the assay with T-47D breast, 1.52 µM.
Turning to `CC(=O)OC1CC2C3CCC4C[C@@H](NC(=O)C=C(C)C)CC[C@]4(C)C3CC[C@]2(C)[C@H]1C(C)N(C)C` (some centres undefined), the GI50 in the assay with 786-0 renal is 1.65 µM; in the assay on COLO 205 colon, 1.51 µM; with EKVX NSCLC, 2.25 µM; in the assay on HCC-2998 colon, 1.75 µM; in the assay with HCT-15 colon, 0.721 µM; in the assay on HOP-62 NSCLC, 1.8 µM. In addition, the GI50 in the assay with KM12 colon was 2.55 µM; in the assay on MCF7 breast it was 1.71 µM; in the assay on NCI-H226 lung, 3.6 µM; with T-47D breast, 1.55 µM. For the same compound, the TGI was determined as 3.17 µM with 786-0 renal; 3.14 µM with COLO 205 colon; 11.3 µM in the assay with EKVX NSCLC; 3.57 µM in the assay with HCC-2998 colon; 2.75 µM in the assay with HCT-15 colon; 3.64 µM in the assay with HOP-62 NSCLC. The TGI turned out to be 10.4 µM in the assay on KM12 colon, 5.84 µM with MCF7 breast, 15 µM with NCI-H226 lung and 6.08 µM in the assay on T-47D breast.
